≈ marks a conversion by molar mass, not a printed value. Where “and” joins values, the source holds several entries; their conditions need not be identical. Identical values can stand only once.
Legend:
[1] = system: S. aureus LAC MRSA (Sa LAC); assay: MIC, broth microdilution, Sa LAC; type: cell-based; details: Staphylococcus aureus, Table 1, HT series, read-out: Minimum inhibitory concentration (MIC) Sa LAC
Description: (§1) The broth microdilution method was utilized to determine MIC values of novel thiazole derivatives against different clinically important Gram-positive bacteria according to the guidelines outlined by the Clinical and Laboratory Standards Institute (CLSI) as reported in our recent papers.^1-5 The starting concentration of compounds for MIC determination was 64 μg/mL serially diluted down the wells and the MIC values were recorded in duplicates in three independent experiments on different days.

[2] = system: S. aureus ATCC 33591 (Sa 91); assay: MIC, broth microdilution, Sa 91; type: cell-based; details: Staphylococcus aureus, ATCC33591; Table 1, HT series; read-out: Minimum inhibitory concentration (MIC) Sa 91
Description: as §1

[3] = system: S. aureus ATCC 25923 (Sa 23); assay: MIC, broth microdilution, Sa 23; type: cell-based; details: replicates from different days separated by comma; for MIC: Staphylococcus aureus, ATCC25923, Table 1, HT series, read-out: Minimum inhibitory concentration (MIC) Sa 23; for Minimum inhibitory concentration (MIC) Sa 23: Table 1, HT series
Description: as §1

[4] = system: S. aureus ATCC BAA-2312 (Sa 12); assay: MIC, broth microdilution, Sa 12; type: cell-based; details: Staphylococcus aureus, ATCCBAA2312; Table 1, HT series; read-out: Minimum inhibitory concentration (MIC) Sa 12
Description: as §1

[5] = system: S. aureus subsp. aureus Rosenbach ATCC 25904 (SA Newman); assay: MIC, broth microdilution, SA Newman; type: cell-based; details: Staphylococcus aureus; Table 1, HT series; read-out: Minimum inhibitory concentration (MIC) Sa Newman
Description: as §1

[6] = system: E. faecalis ATCC 29212 (Efs 12); assay: MIC, broth microdilution, Efs 12; type: cell-based; details: replicates from different days separated by comma; for MIC: Enterococcus faecalis, ATCC29212, Table 1, HT series, read-out: Minimum inhibitory concentration (MIC) Efs 12; for Minimum inhibitory concentration (MIC) Efs 12: Table 1, HT series
Description: as §1

[7] = system: S. aureus ATCC 33592 (Sa 92); assay: MIC, broth microdilution, Sa 92; type: cell-based; details: Staphylococcus aureus, ATCC33592; Table 1, HT series; read-out: Minimum inhibitory concentration (MIC) Sa 92
Description: as §1

[8] = system: Sa UAMS-1 MRSA ATCC 49230 (Sa UAMS); assay: MIC, broth microdilution, Sa UAMS; type: cell-based, S. aureus; details: Staphylococcus aureus; Table 1, HT series; read-out: Minimum inhibitory concentration (MIC) Sa UAMS
Description: as §1

[9] = system: S. aureus ATCC 700699 (Sa 99); assay: MIC, broth microdilution, Sa 99; type: cell-based; details: replicates from different days separated by comma; for MIC: Staphylococcus aureus, ATCC700699, Table 1, HT series, read-out: Minimum inhibitory concentration (MIC) Sa 99; for Minimum inhibitory concentration (MIC) Sa 99: Table 1, HT series
Description: as §1

Oc1ccc(-c2nc(-c3ccccc3)cs2)cc1O [Compound 2, 4-(4-phenylthiazol-2-yl)benzene-1,2-diol]
MIC [1]: 32 µg/mL (≈ 119 µM)
MIC [2]: 16 µg/mL (≈ 59.4 µM)
MIC [3]: 8 µg/mL (≈ 29.7 µM)
Minimum inhibitory concentration (MIC) Sa 23 [3]: 16 µg/mL (≈ 59.4 µM)
MIC [4]: 32 µg/mL (≈ 119 µM)
MIC [5]: 32 µg/mL (≈ 119 µM)
MIC [6]: > 32 µg/mL
Minimum inhibitory concentration (MIC) Efs 12 [6]: >32, >32, >32 μg/mL
MIC [7]: 16 µg/mL (≈ 59.4 µM)
MIC [8]: 32 µg/mL (≈ 119 µM)
MIC [9]: 32 µg/mL (≈ 119 µM)
Minimum inhibitory concentration (MIC) Sa 99 [9]: 16 µg/mL (≈ 59.4 µM)

Oc1ccc(-c2nc(-c3cccc(Cl)c3)cs2)cc1O [Compound 3, 4-(4-(3-chlorophenyl)thiazol-2-yl)benzene-1,2-diol]
MIC [1]: 8 µg/mL (≈ 26.3 µM)
MIC [2]: 4 µg/mL (≈ 13.2 µM)
MIC [3]: 2 µg/mL (≈ 6.58 µM)
Minimum inhibitory concentration (MIC) Sa 23 [3]: 2, 2, 2 μg/mL
MIC [4]: 8 µg/mL (≈ 26.3 µM)
MIC [5]: 4 µg/mL (≈ 13.2 µM)
MIC [6]: 16 µg/mL (≈ 52.7 µM)
Minimum inhibitory concentration (MIC) Efs 12 [6]: 8 µg/mL and 16 µg/mL
MIC [7]: 8 µg/mL (≈ 26.3 µM)
MIC [8]: 8 µg/mL (≈ 26.3 µM)
MIC [9]: 4 µg/mL (≈ 13.2 µM)
Minimum inhibitory concentration (MIC) Sa 99 [9]: 4, 4, 4 μg/mL

Oc1ccc(-c2nc(-c3ccc(F)cc3)cs2)cc1O [Compound 4, 4-(4-(4-fluorophenyl)thiazol-2-yl)benzene-1,2-diol]
MIC [1]: 16 µg/mL (≈ 55.7 µM)
MIC [2]: 8 µg/mL (≈ 27.8 µM)
MIC [3]: 4 µg/mL (≈ 13.9 µM)
Minimum inhibitory concentration (MIC) Sa 23 [3]: 8 µg/mL (≈ 27.8 µM)
MIC [4]: 16 µg/mL (≈ 55.7 µM)
MIC [5]: 8 µg/mL (≈ 27.8 µM)
MIC [6]: 32 µg/mL (≈ 111 µM)
Minimum inhibitory concentration (MIC) Efs 12 [6]: 32, 32, 32 μg/mL
MIC [7]: 16 µg/mL (≈ 55.7 µM)
MIC [8]: 16 µg/mL (≈ 55.7 µM)
Minimum inhibitory concentration (MIC) Sa 99 [9]: 16 μg/mL (2×) and 4 μg/mL

Oc1ccc(-c2nc(-c3ccc(Cl)cc3Cl)cs2)cc1O [Compound 6, 4-(4-(2,4-dichlorophenyl)thiazol-2-yl)benzene-1,2-diol]
MIC [1]: 8 µg/mL (≈ 23.7 µM)
MIC [2]: 4 µg/mL (≈ 11.8 µM)
MIC [3]: 2 µg/mL (≈ 5.91 µM)
Minimum inhibitory concentration (MIC) Sa 23 [3]: 2, 2, 2 μg/mL
MIC [4]: 8 µg/mL (≈ 23.7 µM)
MIC [5]: 4 µg/mL (≈ 11.8 µM)
Minimum inhibitory concentration (MIC) Efs 12 [6]: 16 µg/mL and 2 µg/mL and 8 µg/mL
MIC [7]: 8 µg/mL (≈ 23.7 µM)
MIC [8]: 8 µg/mL (≈ 23.7 µM)
MIC [9]: 2 µg/mL (≈ 5.91 µM)
Minimum inhibitory concentration (MIC) Sa 99 [9]: 2, 2, 2 μg/mL

— patent publication US20250270199A1, “THIAZOLE DERIVATIVES AND METHODS OF USING THE SAME” (Arkansas State University - Jonesboro, priority 2022, published 2025)
